Data as given in patent US20260250318A1, “COMPOSITIONS AND METHODS FOR CROSSING THE BLOOD BRAIN BARRIER” (VOYAGER THERAPEUTICS, INC., priority 2022, published 2026).

What was measured:
Details in all cases: synthetic library passage 3, intravenous, relative to wild-type AAV9
[1] = tested on: brain, spinal cord, and DRG of the NHPs; experiment: NGS fold enrichment of synthetic library (passage 3) in NHPs, first cross-species screen; type: in vivo, cynomolgus macaques (Macaca fascicularis)
Summary of the method: (§1)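 Fold enrichment versus wild-type AAV9 was derived by NGS of RT-PCR-amplified RNA from nervous tissue, collected e.g. 28 days after IV dosing […]. The library (passage 3) was given to two NHPs aged 2-4 years and to 6-8-week BALB/c and C57Bl/6 mice (n=3 each).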

brain [2] = experiment: NGS fold enrichment of synthetic library (passage 3) in C57Bl/6 mice, first cross-species screen; type: in vivo
Summary of the method: as §1

brain [3] = experiment: NGS fold enrichment of synthetic library (passage 3) in BALB/c mice, first cross-species screen; type: in vivo
Summary of the method: as §1

[4] = RNA from spinal cord of NHPs, NGS
[5] = RNA from brain of C57Bl/6 mice, NGS
[6] = RNA from brain of BALB/c mice, NGS

| Sequence | Fold enrichment over AAV9 in the brain of NHPs ([1]; RNA NGS, brain of NHPs) [fold] | Fold enrichment over AAV9 in the spinal cord of NHPs ([1]; RNA NGS, spinal cord of NHPs) [fold] | Fold enrichment over AAV9 in the brain of Mice (C57Bl/6) (brain [2]; RNA NGS, brain of C57Bl/6 mice) [fold] | Fold enrichment over AAV9 in the brain of Mice (BALB/c) (brain [3]; RNA NGS, brain of BALB/c mice) [fold] | Fold enrichment over AAV9 in the brain of NHPs ([1]; RNA from brain of NHPs, NGS) [fold] | Fold enrichment over AAV9 in the spinal cord of NHPs [1, 4] [fold] | Fold enrichment over AAV9 in the brain of Mice (C57Bl/6) (brain [2]; [5]) [fold] | Fold enrichment over AAV9 in the brain of Mice (BALB/c) (brain [3]; [6]) [fold] |
| --- | --- | --- | --- | --- | --- | --- | --- | --- |
| GSGDRYQTLQNQQT | 1.897 | 1.075 | 0.645 | 0.318 | – | – | – | – |
| GSGDSITGKQNQQT | 2.112 | 1.295 | 0.793 | 0.306 | – | – | – | – |
| GSGDTLHMLQNQQT | 3.317 | 1.174 | 0.393 | 0.482 | – | – | – | – |
| GSGEAARYEQNQQT | 1.020 | 0.000 | 0.107 | 0.125 | – | – | – | – |
| GSGEKVHSGQNQQT | – | – | – | – | 1.289 | 0.062 | 0.862 | 0.671 |
| GSGERLHLTQNQQT | 1.885 | 1.456 | 0.387 | 0.245 | – | – | – | – |
| GSGERSISVQNQQT | – | – | – | – | 1.264 | 1.619 | 0.598 | 0.173 |
| GSGEYSRSGQNQQT | 2.145 | 0.745 | 0.617 | 0.205 | – | – | – | – |
| GSGFGPQTGQNQQT | 2.964 | 2.861 | 1.280 | 0.849 | – | – | – | – |
| GSGFHTDSRQNQQT | 1.748 | 4.384 | 7.344 | 0.575 | – | – | – | – |
| GSGFLSDTRQNQQT | 1.566 | 45.953 | 0.473 | 0.575 | – | – | – | – |
| GSGFNQRSEQNQQT | 2.121 | 4.491 | 1.770 | 0.758 | – | – | – | – |
| GSGFPKSTEQNQQT | – | – | – | – | 1.376 | 2.058 | 0.610 | 0.194 |
| GSGFSHSMGKNQQT | – | – | – | – | 1.188 | 9.809 | 1.381 | 0.611 |
| GSGGGLQHNQNQQT | – | – | – | – | 1.163 | 4.098 | 1.137 | 0.778 |
| GSGGLDTRGQNQQT | 2.139 | 6.216 | 0.236 | 0.197 | – | – | – | – |
| GSGGTSVHQQNQQT | 1.629 | 0.000 | 0.585 | 0.195 | – | – | – | – |
| GSGGVTYQSQNQQT | 1.673 | 7.283 | 0.649 | 0.181 | – | – | – | – |
| GSGHAAISQQNQQT | 1.742 | 2.373 | 1.211 | 0.520 | – | – | – | – |
| GSGHAKAVGQNQQT | 1.081 | 4.357 | 0.703 | 0.824 | – | – | – | – |
